What all share (format): cell-based
The test system of one assay is Corynebacterium xerosis. Briefly: Antibacterial activity, minimum inhibitory concentration, Corynebacterium xerosis. The source says:
(§1) The antibacterial activity (the minimum inhibitory concentration) of the compounds of this invention shown by formula I is shown in the following table in comparison to those of known compounds having similar structures, 7-[2-amino-2-(2-aminothiazol-4-yl)acetamido]-3-(1-methyl-tetrazol-5-yl)thiomethyl-Δ^3 -cephem-4-carboxylic acid (Compound A) having the following formula [drawing 8] and 7-[2-amino-2-(2-aminothiazol-4-yl)acetamido]cephalosporanic acid Compound B) having the following formula; [drawing 9]

The subject of assay [1] is Pseudomonas aeruginosa NCTC 10490. The assay is described as follows: Antibacterial activity, minimum inhibitory concentration, Pseudomonas aeruginosa NCTC 10490. The conditions noted are these: NCTC10490.
Source text: as §1

For the next assay, the system named is Vibrio Hy 133. The assay is described as follows: Antibacterial activity, minimum inhibitory concentration, Vibrio Hy 133. As to conditions: HY133.
Source text: as §1

Assay [2] relates to Salmonella enteritidis 1891. Briefly: Antibacterial activity, minimum inhibitory concentration, Salmonella enteritidis 1891. The conditions noted are these: Salmonella enterica.
Source text: as §1

For assay [3], the system named is Staphylococcus aureus 209P. The assay is described as follows: Antibacterial activity, minimum inhibitory concentration, Staphylococcus aureus 209P.
Source text: as §1

In assay [4] the test system is Staphylococcus aureus Oonuma. Briefly: Antibacterial activity, minimum inhibitory concentration, Staphylococcus aureus Oonuma. The conditions noted are these: Staphylococcus aureus Oonuma (penicillin, Streptomycin-resistant).
Source text: as §1

The test system of assay [5] is Pseudomonas aeruginosa ATCC 8689. Briefly: Antibacterial activity, minimum inhibitory concentration, Pseudomonas aeruginosa ATCC 8689. As to conditions: ATCC8689.
Source text: as §1

The subject of another assay is Proteus vulgaris OXK US. The assay is described as follows: Antibacterial activity, minimum inhibitory concentration, Proteus vulgaris OXK US.
Source text: as §1

The test system of assay [6] is Pseudomonas aeruginosa 99. Briefly: Antibacterial activity, minimum inhibitory concentration, Pseudomonas aeruginosa 99. As to conditions: Pseudomonas aeruginosa 99 (Gentamicin-resistant).
Source text: as §1

In assay [7] the test system is Proteus mirabilis IFM OM-9. Briefly: Antibacterial activity, minimum inhibitory concentration, Proteus mirabilis IFM OM-9. As to conditions: IFMOM9.
Source text: as §1

The test system of assay [8] is Bacillus subtilis ATCC 6633. Briefly: Antibacterial activity, minimum inhibitory concentration, Bacillus subtilis ATCC 6633. As to conditions: ATCC6633.
Source text: as §1

Assay [9] has as its system Staphylococcus aureus ATCC 6538P. The assay is described as follows: Antibacterial activity, minimum inhibitory concentration, Staphylococcus aureus ATCC 6538P. The conditions noted are these: ATCC6538P.
Source text: as §1

Molecules are shown by their SMILES. Converted amounts (≈) assume the structure as drawn.

By MIC is commonly meant the least concentration at which growth counts as inhibited.

Consider `CC(=O)OCC1=C(C(=O)O)N2C(=O)C(NC(=O)C(NC(=O)c3cnc(C)cc3O)c3cscn3)C2SC1` (racemic) [Example 1, DL-7-[2-(4-hydroxy-6-methylnicotinamido)-2-(thiazol-4-yl)acetamido]-cephalosporanic acid], for which the MIC with Corynebacterium xerosis was found to be 3.13 mg/L (≈ 5.72 µM); in assay [1], 1.56 mg/L (≈ 2.85 µM); in the assay with Vibrio Hy 133, 0.78 mg/L (≈ 1.42 µM); in assay [2] it was 3.13 mg/L (≈ 5.72 µM); in [3] it was 1.56 mg/L (≈ 2.85 µM); in assay [4], 6.25 mg/L (≈ 11.4 µM). In addition, the MIC in assay [5] is 25 mg/L (≈ 45.7 µM); against Proteus vulgaris OXK US it was 1.56 mg/L (≈ 2.85 µM); in [6], 25 mg/L (≈ 45.7 µM); in assay [7], 3.13 mg/L (≈ 5.72 µM); in assay [8], 3.13 mg/L (≈ 5.72 µM); in [9], 3.13 mg/L (≈ 5.72 µM).
For the compound `CC(=O)OCC1=C(C(=O)O)N2C(=O)C(NC(=O)C(NC(=O)c3cnc(C)cc3O)c3csc(N)n3)C2SC1` (racemic) [Example 2, DL-7-[2-(4-hydroxy-6-methylnicotinamido)-2-(2-aminothiazol-4-yl)acetamido]cephalosporanic acid], the MIC against Corynebacterium xerosis turned out to be 6.25 mg/L (≈ 11.1 µM); in assay [1], 1.56 mg/L (≈ 2.77 µM); against Vibrio Hy 133 it was 0.78 mg/L (≈ 1.39 µM); in [2] it was 0.78 mg/L (≈ 1.39 µM); in [3] it was 3.13 mg/L (≈ 5.56 µM); in assay [4], 12.5 mg/L (≈ 22.2 µM). In addition, the MIC in assay [5] came out at 50 mg/L (≈ 88.9 µM); in the assay with Proteus vulgaris OXK US, 0.78 mg/L (≈ 1.39 µM); in assay [6] it was 25 mg/L (≈ 44.4 µM); in assay [7], 0.39 mg/L (≈ 0.693 µM); in [8], 6.25 mg/L (≈ 11.1 µM); in [9], 6.25 mg/L (≈ 11.1 µM).
For `CC(=O)OCC1=C(C(=O)O)N2C(=O)C(NC(=O)C(NC(=O)c3csccc3=O)c3csc(N)n3)C2SC1` (racemic) [Example 3, DL-7-[2-(2-aminothiazol-4-yl)-2-(4-oxo-4H-thiopyran-3-carboxamido)-acetamido]cephalosporanic acid], the MIC against Corynebacterium xerosis is 3.13 mg/L (≈ 5.53 µM); in assay [1], 25 mg/L (≈ 44.2 µM); with Vibrio Hy 133, 0.78 mg/L (≈ 1.38 µM); in assay [2] it was 0.39 mg/L (≈ 0.69 µM); in assay [3], 1.56 mg/L (≈ 2.76 µM); in assay [4], 6.25 mg/L (≈ 11 µM). Also, the MIC in [5] amounted to 100 mg/L (≈ 177 µM); with Proteus vulgaris OXK US it was 1.56 mg/L (≈ 2.76 µM); in assay [6], 100 mg/L (≈ 177 µM); in assay [7], 0.78 mg/L (≈ 1.38 µM); in [8], 3.13 mg/L (≈ 5.53 µM); in [9] it was 3.13 mg/L (≈ 5.53 µM).
Take `CC(=O)OCC1=C(C(=O)O)N2C(=O)C(NC(=O)C(NC(=O)c3csccc3=O)c3cscn3)C2SC1` (racemic) [Example 4, DL-7-[2-(4-oxo-4H-thiopyran-3-carboxamido)-2-(thiazol-4-yl)acetamido]cephalosporanic acid]: the MIC against Corynebacterium xerosis worked out at 1.56 mg/L (≈ 2.83 µM); in [1], 6.25 mg/L (≈ 11.4 µM); in the assay on Vibrio Hy 133, 0.78 mg/L (≈ 1.42 µM); in [2] it was 6.25 mg/L (≈ 11.4 µM); in [3] it was 1.56 mg/L (≈ 2.83 µM); in assay [4], 6.25 mg/L (≈ 11.4 µM). Moreover, the MIC was found to be 100 mg/L (≈ 182 µM) in [5]; 3.13 mg/L (≈ 5.68 µM) in the assay on Proteus vulgaris OXK US; 100 mg/L (≈ 182 µM) in assay [6]; 6.25 mg/L (≈ 11.4 µM) in assay [7]; 1.56 mg/L (≈ 2.83 µM) in [8]; 1.56 mg/L (≈ 2.83 µM) in assay [9].
Take `Cn1nnnc1SCC1=C(C(=O)O)N2C(=O)C(NC(=O)C(NC(=O)c3csccc3=O)c3cscn3)C2SC1` (racemic) [Example 5, DL-7-[2-(4-oxo-4H-thiopyran-3-carboxamido)-2-(thiazol-4-yl)acetamido]-3-(1-methyltetrazol-5-yl)thiomethyl-Δ^3-cephem-4-carboxylic acid]: the MIC with Corynebacterium xerosis came out at 3.13 mg/L (≈ 5.16 µM); in assay [1] it was 1.56 mg/L (≈ 2.57 µM); in the assay on Vibrio Hy 133 it was 0.39 mg/L (≈ 0.643 µM); in assay [2], 0.78 mg/L (≈ 1.29 µM); in [3], 0.78 mg/L (≈ 1.29 µM); in [4] it was 6.25 mg/L (≈ 10.3 µM). Further, the MIC was found to be 50 mg/L (≈ 82.4 µM) in [5]; 1.56 mg/L (≈ 2.57 µM) in the assay on Proteus vulgaris OXK US; 50 mg/L (≈ 82.4 µM) in assay [6]; 1.56 mg/L (≈ 2.57 µM) in [7]; 3.13 mg/L (≈ 5.16 µM) in [8]; 1.56 mg/L (≈ 2.57 µM) in assay [9].
Consider `Cn1nnnc1SCC1=C(C(=O)O)N2C(=O)C(NC(=O)C(NC(=O)c3csccc3=O)c3csc(N)n3)C2SC1` (racemic) [Example 6, DL-7-[2-(2-aminothiazol-4-yl)-2-(4-oxo-4H-thiopyran-3-carboxyamido)acetamido]-3-(1-methyltetrazol-5-yl)thiomethyl-Δ^3-cephem-4-carboxylic acid], for which the MIC against Corynebacterium xerosis turned out to be 1.56 mg/L (≈ 2.51 µM); in [1] it was 0.78 mg/L (≈ 1.25 µM); with Vibrio Hy 133, 0.78 mg/L (≈ 1.25 µM); in assay [2], 0.19 mg/L (≈ 0.306 µM); in [3], 0.78 mg/L (≈ 1.25 µM); in [4], 3.13 mg/L (≈ 5.03 µM). Further, the MIC in assay [5] was determined as 50 mg/L (≈ 80.4 µM); with Proteus vulgaris OXK US, 0.19 mg/L (≈ 0.306 µM); in [6] it was 50 mg/L (≈ 80.4 µM); in [7], 0.09 mg/L (≈ 0.145 µM); in assay [8], 1.56 mg/L (≈ 2.51 µM); in [9], 1.56 mg/L (≈ 2.51 µM).
Regarding `Cc1cc(O)c(C(=O)NC(C(=O)NC2C(=O)N3C(C(=O)O)=C(CSc4nnnn4C)CSC23)c2csc(N)n2)cn1` (racemic) [Example 7, DL-7-[2-(2-aminothiazol-4-yl)-2-(4-hydroxy-6-methylnicotinamido)acetamido]-3-(1-methyltetrazol-5-yl)thiomethyl-Δ^3-cephem-4-carboxylic acid], the MIC against Corynebacterium xerosis amounted to 6.25 mg/L (≈ 10.1 µM); in assay [1], 0.39 mg/L (≈ 0.63 µM); in the assay on Vibrio Hy 133, 0.78 mg/L (≈ 1.26 µM); in assay [2], 0.09 mg/L (≈ 0.145 µM); in [3], 1.56 mg/L (≈ 2.52 µM); in assay [4], 6.25 mg/L (≈ 10.1 µM). Also, the MIC in assay [5] was found to be 25 mg/L (≈ 40.4 µM); with Proteus vulgaris OXK US, 0.19 mg/L (≈ 0.307 µM); in assay [6], 12.5 mg/L (≈ 20.2 µM); in assay [7] it was 0.09 mg/L (≈ 0.145 µM); in assay [8] it was 3.13 mg/L (≈ 5.06 µM); in assay [9] it was 1.56 mg/L (≈ 2.52 µM).
Consider `Cc1cc(O)c(C(=O)NC(C(=O)NC2C(=O)N3C(C(=O)O)=C(CSc4nnnn4C)CSC23)c2cscn2)cn1` (racemic) [Example 8, DL-7-[2-(4-hydroxy-6-methylnicotinamido)-2-(thiazol-4-yl)-acetamido]-3-(1-methyltetrazol-5-yl)thiomethyl-Δ^3-cephem-4-carboxylic acid], for which the MIC came to 3.13 mg/L (≈ 5.18 µM) in the assay on Corynebacterium xerosis; 0.78 mg/L (≈ 1.29 µM) in [1]; 0.78 mg/L (≈ 1.29 µM) with Vibrio Hy 133; 0.78 mg/L (≈ 1.29 µM) in [2]; 1.56 mg/L (≈ 2.58 µM) in assay [3]; 6.25 mg/L (≈ 10.4 µM) in assay [4]. In addition, the MIC was determined as 25 mg/L (≈ 41.4 µM) in [5]; 1.56 mg/L (≈ 2.58 µM) in the assay with Proteus vulgaris OXK US; 12.5 mg/L (≈ 20.7 µM) in assay [6]; 1.56 mg/L (≈ 2.58 µM) in assay [7]; 3.13 mg/L (≈ 5.18 µM) in assay [8]; 1.56 mg/L (≈ 2.58 µM) in assay [9].
As for `Cn1nnnc1SCC1=C(C(=O)O)N2C(=O)C(NC(=O)C(N)c3csc(N)n3)C2SC1` (stereo not drawn) [Compound A, 7-[2-amino-2-(2-aminothiazol-4-yl)acetamido]-3-(1-methyl-tetrazol-5-yl)thiomethyl-Δ^3-cephem-4-carboxylic acid, reference compound], the MIC is 25 mg/L (≈ 51.7 µM) in the assay on Corynebacterium xerosis; 100 mg/L (≈ 207 µM) in [1]; 6.25 mg/L (≈ 12.9 µM) in the assay with Vibrio Hy 133; 0.78 mg/L (≈ 1.61 µM) in assay [2]; 12.5 mg/L (≈ 25.8 µM) in assay [3]; 100 mg/L (≈ 207 µM) in assay [4]. Also, the MIC in [5] is greater than 100 mg/L; against Proteus vulgaris OXK US, 6.25 mg/L (≈ 12.9 µM); in [6], greater than 100 mg/L; in assay [7] it was 1.56 mg/L (≈ 3.23 µM); in assay [8] it was 12.5 mg/L (≈ 25.8 µM); in [9], 25 mg/L (≈ 51.7 µM).
Take `CC(=O)OCC1=C(C(=O)O)N2C(=O)C(NC(=O)C(N)c3csc(N)n3)C2SC1` (stereo not drawn) [Compound B, 7-[2-amino-2-(2-aminothiazol-4-yl)acetamido]cephalosporanic acid, reference compound]: the MIC against Corynebacterium xerosis was 3.13 mg/L (≈ 7.32 µM); in assay [1] it was greater than 100 mg/L; in the assay with Vibrio Hy 133, 1.56 mg/L (≈ 3.65 µM); in assay [2], 0.78 mg/L (≈ 1.82 µM); in assay [3], 3.13 mg/L (≈ 7.32 µM); in [4], 12.5 mg/L (≈ 29.2 µM). Further, the MIC in assay [5] is greater than 100 mg/L; with Proteus vulgaris OXK US, 3.13 mg/L (≈ 7.32 µM); in assay [6], greater than 100 mg/L; in assay [7], 1.56 mg/L (≈ 3.65 µM); in assay [8], 1.56 mg/L (≈ 3.65 µM); in [9], 3.13 mg/L (≈ 7.32 µM).

Source of the values: patent US4311842A, “Cephalosporin compounds” (Yamanouchi Pharmaceutical Co., Ltd., priority 1978, dated 1982).
